Measurements as given in patent US12053506B2, “Romo1-derived antimicrobial peptides and variants thereof” (priority 2019, dated 2024).
≈ marks a conversion by molar mass, not a printed value. Like-named read-outs stand apart in the source and are kept apart here. Non-standard residues stand in square brackets, D forms with d. Residues, ends and D or L forms follow the SMILES beside them. No end group written: not given here.

Assays:
[1] = system: Staphylococcus aureus (ATCC 29213); type: cell-based; details: for MBC Staphylococcus aureus: Tables 11-15, no unit printed
In short: (§1)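 Bacteria grown in 3% TSB at 37° C, diluted in 10 mM sodium phosphate/1% TSB to 1×10^5 CFU/ml in wells, exposed to peptides (0–300 μg/ml) for 1 h at 37° C. Mixtures plated on TS agar for 18 h at 37° C; MBC is the lowest concentration giving no colonies.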

[2] = system: Pseudomonas aeruginosa (ATCC 27853); type: cell-based; details: for MBC Pseudomonas aeruginosa: Tables 11-15, no unit printed
In short: as §1

[3] = system: Pseudomonas aeruginosa and Staphylococcus aureus; test: MBC assay, antibacterial activity of Romo1-derived peptides compared in words; type: cell-based; details: Table 1 peptides
Excerpt: Romo1 protein comprises two α-helices. The present inventors synthesized the α-helix 2 region having both hydrophilicity and hydrophobicity, and evaluated the antibacterial activity thereof using minimum bactericidal concentration (MBC) assay. The α-helix 2 region was named KU-5279 (the 52-79 amino acid region of Romo1 protein). Then, in order to identify peptides that are beneficial for human application and have excellent antibacterial activity, the present inventors synthesized several peptides comprising a sequence of contiguous amino acids starting at any amino acid selected from the 52-79 amino acid region of Romo1 protein, and comparatively evaluated the antibacterial activities of the peptides by minimum bactericidal concentration assay (See Table 1 below for information on each peptide). Evaluation of the antibacterial activity of each peptide by minimum bactericidal concentration assay was specifically performed as follows. First, each of Pseudomonas aeruginosa (ATCC 27853) and Staphylococcus aureus (ATCC 29213) was cultured in 3% (w/v) TSB (Tryptic Soy Broth) liquid medium at 37° C. and 200 rpm for 4 hours, and then further cultured under the same conditions for 3 hours to a concentration of 5×10^6 CFU/ml. […]

[4] = system: Vancomycin-resistant S. aureus (NCCP 15872); type: cell-based, Staphylococcus aureus; details: Vancomycin-resistant (NCCP 15872, 4 h)
Experimental: (§2) The minimum bactericidal concentration assay was the same as the method used in Example 1.
(§3) Specifically, each type of bacteria was cultured in 3% (w/v) TSB (Tryptic Soy Broth) liquid medium at 37° C. and 200 rpm for 4 hours, and then further cultured under the same conditions for 3 hours to a concentration of 5×10^6 CFU/ml. Strain solutions were prepared by diluting each of the […] of 2×10^5 CFU/ml.
(§4) Then, the KU-5878 peptide at varying concentrations (0 μg/ml to 300 μg/ml) was dispensed into each well of a 96-well microplate, and 100 μl (1×10^5 CFU/ml) of each of the prepared strain solutions was added thereto, mixed therewith, and allowed to react with the peptide in an incubator at 37° C. for 1 hour.
(§5) In addition, 10 μl of each reaction solution of the peptide and the strain was plated on the TS agar plate at a constant size, and incubated in an incubator at 37° C. for 18 hours, and then colony formation on the plate was checked. The minimum bactericidal concentration was defined as the minimum concentration of the peptide at which no colony was formed, and the experimental results are shown in Table 2 below.

[5] = system: Vancomycin-resistant E. faecium (NCCP 11522); type: cell-based, Enterococcus faecium; details: Vancomycin-resistant (NCCP 11522, 4 h)
Experimental: as §2, §3, §4, §5

[6] = system: Streptococcus pneumoniae (NCCP 14585); type: cell-based; details: NCCP 14585, 4 h
Experimental: as §2, §3, §4, §5

[7] = system: Multidrug-resistant A. baumannii; details: multidrug-resistant, 4 h
Experimental: as §2, §3, §4
(§6) In addition, 10 μl of each reaction solution of the peptide and the strain was plated on the TS agar plate at a constant size, and incubated in an incubator at 37° C. for 18 hours, and then colony formation on the plate was checked.
(§7) Meanwhile, the multidrug-resistant Pseudomonas aeruginosa, multidrug-resistant Acinetobacter and multidrug-resistant Klebsiella in Table 2 below were bacteria isolated from patients at Korea University Anam Hospital. […] Then, these bacteria were used in the experiment.

[8] = system: Multidrug-resistant K. pneumoniae; details: multidrug-resistant, 4 h
Experimental: as §2, §3, §4, §6, §7

[9] = system: Klebsiella pneumoniae (ATCC 13883); test: Minimum bactericidal concentration (MBC) assay; type: cell-based
Experimental: as §2, §3, §4, §5

[10] = system: Enterococcus faecium (ATCC 19434); test: Minimum bactericidal concentration (MBC) assay; type: cell-based
Experimental: as §2, §3, §4, §5

[11] = system: Enterococcus faecalis (ATCC 19433); test: Minimum bactericidal concentration (MBC) assay; type: cell-based
Experimental: as §2, §3, §4, §5

[12] = system: Escherichia coli (ATCC 25922); test: Minimum bactericidal concentration (MBC) assay; type: cell-based
Experimental: as §2, §3, §4, §5

[13] = system: Bacillus subtilis (ATCC 6633); test: Minimum bactericidal concentration (MBC) assay; type: cell-based
Experimental: as §2, §3, §4, §5

[14] = system: Enterobacter aerogenes (ATCC 13048); test: Minimum bactericidal concentration (MBC) assay; type: cell-based
Experimental: as §2, §3, §4, §5

[15] = system: Streptomyces sindenensis (ATCC 12392); test: Minimum bactericidal concentration (MBC) assay; type: cell-based
Experimental: as §2, §3, §4, §5

[16] = system: Acinetobacter baumannii (ATCC 19606); test: Minimum bactericidal concentration (MBC) assay; type: cell-based
Experimental: as §2, §3, §4, §5

[17] = system: multidrug-resistant Pseudomonas aeruginosa; details: 4 h
Experimental: First, each of Pseudomonas aeruginosa (ATCC 27853) and Staphylococcus aureus (ATCC 29213) was cultured in 3% (w/v) TSB (Tryptic Soy Broth) liquid medium at 37° C. and 200 rpm for 4 hours, and then further cultured under the same conditions for 3 hours to a concentration of 5×10^6 CFU/ml. Strain solutions were prepared by diluting each of the further cultured strains with SP (sodium phosphate; 10 mM sodium phosphate, 1% TSB) buffer to a final concentration of 2×10^5 CFU/ml.
as §4, with “each” for “the KU-5878”
In addition, 30 g/L of TS (tryptic soy) and 15 g/L of agar were dissolved in distilled water and sterilized, and then 25 ml of the solution was poured onto a 100 mm round plate and solidified at room temperature for one day or more, thereby preparing a TS agar plate. 10 μl of each reaction solution of the peptide and the strain was plated on the TS agar plate at a constant size, and incubated in an incubator at 37° C. for 18 hours, and then colony formation on the plate was checked.
as §3, §4, §6, §7

mouse red blood cells = type: cell-based
Experimental: Red blood cells were diluted with PBS, centrifuged 3 times at 900 g for 10 minutes, and washed. 100 μl of the diluted red blood cell solution (10% v/v PBS) was dispensed into each well of a 96-well microplate, and KU-5878, KU-5878-K4, KU-5878-K4-D, melittin, magainin 2 or daptomycin was added to each well which was then filled with PBS to 200 μl, followed by reaction by incubation at 37° C. for 1 hour. Then, the supernatant of the reaction solution was separated, and the absorbance at a wavelength of 550 nm was measured using a spectrophotometer. As control, PBS and 0.1% Triton X-100 (Triton X-100) solution were used.
Based on the results of measurement of the absorbance, the degree of red blood cell destruction was calculated according to Equation 1 below, and the results of the calculation are shown in FIG. 6. The % intact RBC=100(%)−[(absorbance of peptide-treated red blood cell solution−absorbance of PBS-treated red blood cell solution)/(absorbance of Triton X-100-treated red blood cell solution−absorbance of PBS-treated red blood cell solution)×100(%)] [Equation 1]

[18] = system: methicillin-resistant Staphylococcus aureus (ATCC 33591); details: for MBC value (μg/ml) against methicillin-resistant Staphylococcus aureus: ATCC 33591, 4 h; for MBC MRSA: Tables 11-15, no unit printed
CRPA = test: MBC, evaluation of antibacterial activities of KU-5878 variants; type: cell-based; details: Tables 11-15, no unit printed

Molecule	MBC value (μg/ml) against Staphylococcus aureus ([1]; ATCC 29213, 1 h)	MBC value (μg/ml) against Pseudomonas aeruginosa ([2]; ATCC 27853, 1 h)	MBC value (μg/ml) against multidrug-resistant Pseudomonas aeruginosa [17]	hemolysis of red blood cells (mouse red blood cells)	MBC value (μg/ml) against methicillin-resistant Staphylococcus aureus [18]	MBC CRPA (CRPA)	MBC Staphylococcus aureus [1]	MBC Pseudomonas aeruginosa [2]	MBC MRSA [18]	other results
CLRIGMRGRELM [pCM12, reference compound]	>300 µg/mL	>300 µg/mL								antibacterial activity by MBC assay, in words [3]: low bactericidal activity
KKMMKKGGKFGTFMAIGMGIR [KU-5878-K4]	3 µg/mL	4 µg/mL	5 µg/mL	little hemolysis of red blood cells	5 µg/mL					MBC value (μg/ml), Vancomycin-resistant S. aureus [4]: 6 µg/mL; MBC value (μg/ml), Vancomycin-resistant E. faecium [5]: 5 µg/mL; MBC (μg/ml) value against Staphylococcus aureus ([1]; ATCC 29213): 3 µg/mL; MBC (μg/ml) value against Pseudomonas aeruginosa ([2]; ATCC 27853): 4 µg/mL; MBC value (μg/ml), Streptococcus pneumoniae [6]: 4 µg/mL; MBC value (μg/ml), Multidrug-resistant A. baumannii [7]: 4 µg/mL; MBC value (μg/ml), Multidrug-resistant K. pneumoniae [8]: 5 µg/mL; MBC value (μg/ml), Klebsiella pneumoniae [9]: 5 µg/mL; MBC value (μg/ml), Enterococcus faecium [10]: 5 µg/mL; MBC value (μg/ml), Enterococcus faecalis [11]: 5 µg/mL; MBC value (μg/ml), Escherichia coli [12]: 5 µg/mL; MBC value (μg/ml), Bacillus subtilis [13]: 5 µg/mL; MBC value (μg/ml), Enterobacter aerogenes [14]: 5 µg/mL; MBC value (μg/ml), Streptomyces sindenensis [15]: 5 µg/mL; MBC value (μg/ml), Acinetobacter baumannii [16]: 4 µg/mL
CC[C@H](C)[C@H](NC(=O)CNC(=O)[C@H](CCSC)NC(=O)CNC(=O)[C@@H](NC(=O)[C@H](C)NC(=O)[C@H](CCSC)NC(=O)[C@H](Cc1ccccc1)NC(=O)[C@@H](NC(=O)CNC(=O)[C@H](Cc1ccccc1)NC(=O)[C@@H](CCCCN)NC(=O)CNC(=O)CNC(=O)[C@@H](CCCCN)NC(=O)[C@@H](CCCCN)NC(=O)[C@H](CCSC)NC(=O)[C@H](CCSC)NC(=O)[C@@H](CCCCN)NC(=O)[C@@H](N)CCCCN)[C@@H](C)O)[C@@H](C)CC)C(=O)N[C@@H](CCCNC(=N)N)C(=O)O [KU-5878-K4-D] (H-K[dK]MM[dK][dK]GG[dK]FGTFMAIGMGIR-OH)				little hemolysis of red blood cells						MBC (μg/ml) value against Staphylococcus aureus ([1]; ATCC 29213, 1 h): 3 µg/mL (≈ 1.29 µM); MBC (μg/ml) value against Pseudomonas aeruginosa ([2]; ATCC 27853, 1 h): 3 µg/mL (≈ 1.29 µM)
KKMMQSGGTFGTFMAIGMGIR [KU-5878-T59K]	40 µg/mL	50 µg/mL	45 µg/mL		45 µg/mL	50 µg/mL	40 µg/mL	50 µg/mL	50 µg/mL	
KKMMKKGGTFGTFMAIGMGIR [KU-5878-K3]	4 µg/mL	4 µg/mL	4 µg/mL		5 µg/mL	4 µg/mL	4 µg/mL	4 µg/mL	5 µg/mL	
KTMMQSGGKFGTFMAIGMGIR [KU-5878-T66K]	60 µg/mL	80 µg/mL	80 µg/mL		70 µg/mL	70 µg/mL	60 µg/mL	80 µg/mL	80 µg/mL	
